Series [1] is described as follows: Toxicity of 2,4,5-trimethoxyphenylpropane compared with β-asarone.
Series [2] deals with mice fed with a high cholesterol diet. The settings on record: oral dose of 80 mg/kg; cited from earlier work.
Another series deals with rats. The settings on record: cited from earlier work.
Another series has as its system mice. To be noted: cited from earlier work.
In a further series the test system is animals. To be noted: cited from earlier work.
A further series deals with human lymphocytes. To be noted: human lymphocytes in-vitro after metabolic activation; cited from earlier work.

Take `CCCc1cc(OC)c(OC)cc1OC` [2,4,5-trimethoxyphenylpropane, 1-propyl-2,4,5-trimethoxybenzene]: the “toxicity relative to β-asarone” value in series [1] was “five times less toxic”.

`C/C=C/c1cc(OC)c(OC)cc1OC` [α-asarone, trans-2,4,5-trimethoxyphenyl-1-propene]: in series [2], the decrease of cholesterol was 49.6%, the decrease of triglycerides is reported as 83.7% and the “high density lipoprotein (HDL)-cholesterol” value was “increased”. In the series with rats, the toxicity result is “no toxic effect is observed”. Further, in the series with mice, the toxicity result is given as “no toxic effect is observed”.

Turning to `C/C=C\c1cc(OC)c(OC)cc1OC` [β-asarone], the tumor induction entry in the series on animals (after oral administration) is given as “induce tumors in the duodenal region”. Moreover, the carcinogenicity entry in the series on animals (animals) is “carcinogenic”. Moreover, the chromosome damaging effect entry with human lymphocytes is “chromosome damaging effect”.

Values taken from US6590127B1, “Process for the preparation of pharmacologically active α-asarone from toxic β-asarone rich acorus calamus oil” (priority 2002, dated 2003).
